Four compounds from US20160024421A1, “IONIC LIQUIDS CONTAINING QUATERNARY PHOSPHONIUM CATIONS AND CARBOXYLATE ANIONS, AND THEIR USE AS LUBRICANT ADDITIVES” (UT-Battelle, LLC, priority 2014, published 2016) can be followed below.

Read-outs that look alike come from different tables or passages of the source.

What all share (assay type): physicochemical
The nature of series [1]: Thermogravimetric analysis (decomposition temperature). Here is the method:
(§1) Thermogravimetric analysis (TGA) was performed on a thermogravimetric analyzer (TGA-2950, TA instruments) at a 10° C./min heating rate in air. […] The kinematic viscosities were measured on a […] viscometer.

The nature of series [2]: Density.
Series [3] can be described thus: Kinematic viscosity (Petrolab Minivis II viscometer). Also on record: unit not given here. On the procedure: as §1

Turning to `CCCCCCCCCCCCCCCCCC(=O)[O-].CCCCCCCCCCCCCC[P+](CCCCCC)(CCCCCC)CCCCCC` [[P66614][C17H35COO]s], in series [1] (TGA, 10° C./min heating rate in air), the Decomp. temperature is 308 °C. The “Density @ 20° C.” value in series [2] (20° C.) is recorded as 0.88 g/mL.
In the case of “trihexyltetradecylphosphonium octanoate [[P66614][C7H15COO]s]”, in series [1], the Decomp. temperature turned out to be 261 °C. For the same compound, the “Kinematic Viscosity @ 40° C.” value in series [3] stood at 122.2.
For the compound `CCCCCCCCCC(=O)[O-].CCCCCCCCCCCCCC[P+](CCCCCC)(CCCCCC)CCCCCC` [[P66614][C9H19COO]s], in series [2] (20° C.), the “Density @ 20° C.” value is recorded as 0.89 g/mL. In series [3] (40° C.), the “Kinematic Viscosity @ 40° C.” value is “solid”.
Turning to “trihexyltetradecylphosphonium 2-ethylhexanoate [[P66614][C7H15COO]b]”, in series [1], the Decomp. temperature was determined as 308 °C. In addition, the “Density @ 20° C.” value in series [2] is listed as 0.88 g/mL. In addition, the “Kinematic Viscosity @ 40° C.” value in series [3] turned out to be 184.8.
